Results reported in patent publication US20200199523A1, “MEDIA FOR MICROORGANISM CULTURE AND RELATED COMPOSITIONS AND METHODS” (Massachusetts Institute of Technology, priority 2017, published 2020).

Experiments:
[1] = tested on: wildtype Pichia pastoris; test: Batch cultivation growth (optical density, growth rate) in microtiter plates and shake flasks; assay type: cell-based, Komagataella phaffii; conditions: for Effect of supplement on growth rate: nutrient screening in defined media; for Growth rate μ in supplemented defined media: nutrient screening, supplement added to defined media; for Effect on growth rate of reducing the element's concentration by 50%: basal salts medium (FIG. 2A)
Description: Batch cultivations were conducted at two scales: microtiter plates and shake flasks. Microtiter plates with 24 wells and pyramidal bottoms were purchased from Axygen. Each well had 10 mL total volume and cultivations used a 3 mL working volume. Plates were incubated in a Liconic LPX44 shaker at 600 rpm. Temperature was not controlled but remained at room temperature, between 21 and 24° C. […] The shake rate was set to 300 rpm and the temperature was controlled at 25° C. […]
All chemicals used in media formulations were purchased from Sigma. Complex media was purchased from Teknova. […] Glycerol was added at a starting concentration of 1% by volume. Media was autoclaved and filtered through a […] bottletop filter before use. PTM1 salts were added after filtration to avoid loss of trace elements through precipitation.
Biomass was measured by optical density. Shake flask samples were measured on a Genesys 10 Bio spectrophotometer. Microtiter plate samples were measured using a Tecan Infinite M200 Pro plate reader and converted to the same scale as the spectrophotometer samples using a calibration curve. Growth rates were calculated by linear regression between the natural logarithm of the optical density and the cultivation time in hours. The regression was run on time points during the exponential growth phase unless otherwise specified.

[2] = tested on: P. pastoris strains expressing hGH, G-CSF, IFN; test: Amino acid supplementation of defined media: recombinant protein expression (GXII, SDS-PAGE, ELISA); assay type: cell-based; conditions: alone or with other amino acids, IFN (FIG. 10-13)
Description: Here, a study is presented of the impact of adding specific amino acids on recombinant protein titers. To uncover a general formulation, three P. pastoris strains were studied, each expressing a different heterologous protein.
Expression of three recombinant proteins, hGH, G-CSF, and IFN, by P. pastoris grown in media with different individual amino acids, 12.5 mM each. Protein concentrations measured by GXII, samples taken 24 hours after methanol induction (FIG. 10).
(FIG. 11). hGH expression by P. pastoris grown in media with different combinations of amino acids, each 12.5 mM total, based on initial individual amino acid screenings is shown. hGH concentrations were measured by GXII, samples taken 24 hours after methanol induction.
In FIG. 12, the effect of Asparagine, Glutamine, and Arginine on protein expression is examined. The starred media conditions are as follows; Glutamine, Arginine, Glutamine+Arginine (RDM), Asparagine, Glutamine+Asparagine, and all 20 amino acids. In all media conditions, total amino acid concentration is normalized to 25 mM.
hGH production was measured in media containing individual or combinations of amino acids. The total concentration in (mM) of amino acids was 12.5, 25, or 50 mM. The results were measured by ELISA, and each value is the average of three technical replicates.

[3] = tested on: P. pastoris gene expression; test: RNA-Seq gene expression and ssGSEA at stages of perfusion cultivation; assay type: cell-based, K. phaffii
Description: To study gene expression under perfusion, seven cultivations were conducted (FIG. 14B). The production medium contained 1.5% v/v methanol. For four of the bioreactors (labeled 1, 3, 5A, 6A), the cultures were induced immediately after the DO spike. For the other three reactors (labeled 4, 5, 6), glycerol feed was maintained after the DO spike for 4 hours and then the cultures were induced with methanol. There were no significant differences between the biomass, hGH titers, or transcriptomic data between the two conditions (FIG. 15), so they were treated as biological replicates for RNA-Seq analysis.
RNA was isolated from samples taken at six time points during the cultivation (FIG. 14B). Samples were taken from all reactors after one day of exponential growth on glycerol (G1) and immediately after the DO spike (G2). […]
RNA was extracted using the Qiagen RNeasy kit (cat. no. 74104). […] All libraries were sequenced on the Illumina NextSeq platform to generate 75-nucleotide paired-end reads at a read depth of at least 3 million reads per sample. The reads were aligned to the previously reported genome sequence for this strain (Love et al., 2016) using RSEM version 1.2.15 with bowtie2 version 2.2.3. The reads were also aligned to the sequence for hGH using BWA (version 0.7.12). […]

[4] = tested on: K. phaffii strain modified to express human growth hormone (hGH); test: Perfusion cultivation: biomass (wet cell weight), hGH titer, productivity; assay type: cell-based
Description: Experiments were conducted using a K. phaffii strain modified to express human growth hormone (hGH) under the control of the AOX1 promoter. For biomass accumulation, cells were grown in medium containing per liter: 40 mL glycerol, 12 g KH2PO4, 4.7 g MgSO4.7H2O, 0.36 g CaCl2.2H2O, 4.96 g (NH4)2SO4, 1.46 g L-glutamine, 1.74 g L-arginine, 3.3 mL of vitamin solution, 10 mL of lipids solution, and 4.35 mL of PTM1 salts (Amresco J241). For protein production, cells were grown in medium containing per liter: 12 g KH2PO4, 4.7 g MgSO4.7H2O, 0.36 g CaCl2.2H2O, 13.21 g (NH4)2SO4, 2.92 g L-glutamine, 3.3 mL of vitamin solution, 10 mL of lipids solution, and 4.35 mL of PTM1 salts (Amresco J241). Both media were adjusted to pH 6.5 using 5M KOH. The vitamin solution consisted of per liter: 7.5 g myo-inositol, 0.3 g thiamine HCl, 0.3 g calcium pantothenate, 0.3 g nicotinic acid, 0.3 g pyroxidine HCl, 0.015 g biotin, and 0.06 g para-aminobenzoic acid. The lipids solution consisted of per liter: 2 mg arachidonic acid, 10 mg linoleic acid, 10 mg linolenic acid, 10 mg myristic acid, 10 mg oleic acid, 10 mg palmitic acid, 10 mg stearic acid, 2.2 g Tween-80, 70 mg tocopherol acetate, and 100 g of Pluronic F-68. All chemicals were purchased from Sigma. The medium was filtered before use.
Cultivations were conducted in 0.5 L Infors HT bioreactors adapted for operation in perfusion mode. Cultures were inoculated directly from a frozen cell stock into 0.44 L of medium. Cells were grown for approximately 32 hours in perfusion mode with medium containing glycerol fed at a rate of 0.5 mL/minute. […] The cultures were induced by switching the feed to production medium containing methanol, which was also fed at 0.5 mL/minute. Bioreactor temperature was automatically controlled at 25° C. The pH was controlled at 6.5 using 5M KOH.
For the studies of higher methanol feed rate, two cultivations were conducted. The production medium contained 15% v/v methanol. All other fermentation conditions were as described above.
Biomass was measured by wet cell weight. Five hundred microliters of sample were spun in a Costar Spin-X centrifuge filter tube for 10 minutes at 1500 g and the pellet was weighed. hGH concentrations in the supernatants were quantified by RPLC and by gel electrophoresis (Perkin Elmer GXII). Concentrations estimated by the two methods were highly consistent (slope=0.98, R^2=0.95).
Cell-specific productivity was calculated according to the following system of equations (Amos Lu, unpublished): […]
where qp is the cell-specific productivity, μ is the growth rate, F is the perfusion rate, X is the biomass concentration, and P is the protein titer.

[5] = perfusion, 15% v/v vs 1.5% v/v methanol

C[C@H](N)C(=O)O [Alanine]
Effect of supplement on growth rate [1]: did not | Growth rate μ in supplemented defined media [1]: 0.195 h⁻¹

N=C(N)NCCC[C@H](N)C(=O)O [Arginine]
Effect of supplement on growth rate [1]: significant benefit | Growth rate μ in supplemented defined media [1]: 0.202 h⁻¹ | Effect on protein production [2]: increases protein production

NC(=O)CC[C@H](N)C(=O)O [Glutamine]
Growth rate μ in supplemented defined media [1]: 0.217 h⁻¹ | Effect on protein production [2]: increases protein production

CC(O)C(=O)O (stereo not shown) [Lactate]
Growth rate μ in supplemented defined media [1]: 0.186 h⁻¹

NCCCC[C@H](N)C(=O)O [Lysine]
Effect of supplement on growth rate [1]: did not | Growth rate μ in supplemented defined media [1]: 0.196 h⁻¹

OC[C@H]1O[C@H](O[C@H]2O[C@H](CO)[C@@H](O)[C@H](O)[C@H]2O)[C@H](O)[C@@H](O)[C@@H]1O [Trehalose]
Growth rate μ in supplemented defined media [1]: 0.193 h⁻¹

N [ammonium]
Effect on growth rate of reducing the element's concentration by 50% [1]: significantly improved the growth rate | Concentration at which it became limiting for growth ([1]; basal salts medium (FIG. 2B)): 12.5 mM

NC(=O)C[C@H](N)C(=O)O [asparagine]
Effect on protein production [2]: increases protein production

CO [methanol]
Increase in expression of genes involved in methanol metabolism vs glycerol ([3]; first 4 hours after induction): 35 fold | Increase in expression of genes involved in methanol metabolism vs glycerol ([3]; later in methanol feeding): 100 fold | Cell-specific productivity relative to low-feed case ([4]; beginning of the cultivation (FIG. 23C)): double | Biomass concentration ([4]; perfusion, 15% v/v methanol, day 6 of production): 530 g/L WCW | hGH titer ([4]; perfusion, 15% v/v methanol, end of the cultivation): 2 g/L | Cell density relative to low-methanol feeding experiments [4, 5]: over four times greater | hGH titers relative to lower methanol feed rate [4, 5]: over six times higher | Average growth rate ([4]; perfusion, methanol feed rate increased by a factor of ten (15% v/v)): 0.01 h⁻¹ | Volumetric productivity relative to lower methanol feed ([4]; perfusion, on average (FIG. 23D)): 3-4 times

S1SSSSSSS1 [sulfur]
Effect on growth rate of reducing the element's concentration by 50% [1]: no significant effect

phosphate
Effect on growth rate of reducing the element's concentration by 50% [1]: no significant effect
